Results as given in publication PMC6629785, “Synthesis and Pharmacological Evaluation of a Novel Peptide Based on Anemonia sulcata BDS-I Toxin as a New KV3.4 Inhibitor Exerting a Neuroprotective Effect Against Amyloid-β Peptide” (Frontiers in Chemistry, 2019).

Target: T1, KV3.4 channels (Homo sapiens, UniProt Q03721)
T1 construct: expressed in transfected cells; host or cells: CHO cells, transient transfection with Lipofectamine 2000; cDNAs provided by Professor Goldstein, University of Chicago
T1 sequence (Q03721 1-635): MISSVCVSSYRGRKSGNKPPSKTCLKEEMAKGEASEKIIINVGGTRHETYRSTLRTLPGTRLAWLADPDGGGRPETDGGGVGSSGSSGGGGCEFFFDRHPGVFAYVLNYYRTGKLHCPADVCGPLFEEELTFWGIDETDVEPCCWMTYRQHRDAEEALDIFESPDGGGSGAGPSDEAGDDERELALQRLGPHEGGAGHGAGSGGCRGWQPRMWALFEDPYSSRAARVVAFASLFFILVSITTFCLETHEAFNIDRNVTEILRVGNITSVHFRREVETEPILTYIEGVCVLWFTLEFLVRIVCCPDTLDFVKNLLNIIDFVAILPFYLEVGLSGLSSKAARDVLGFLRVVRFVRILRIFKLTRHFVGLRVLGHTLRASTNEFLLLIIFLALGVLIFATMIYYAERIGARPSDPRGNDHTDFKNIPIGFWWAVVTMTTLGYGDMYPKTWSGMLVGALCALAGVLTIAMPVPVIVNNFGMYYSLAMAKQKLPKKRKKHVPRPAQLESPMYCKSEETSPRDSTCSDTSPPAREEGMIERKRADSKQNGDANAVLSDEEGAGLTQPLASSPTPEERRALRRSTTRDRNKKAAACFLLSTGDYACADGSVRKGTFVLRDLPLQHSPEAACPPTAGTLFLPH
T1 sequence (Q9Y6H6 1-103 partner): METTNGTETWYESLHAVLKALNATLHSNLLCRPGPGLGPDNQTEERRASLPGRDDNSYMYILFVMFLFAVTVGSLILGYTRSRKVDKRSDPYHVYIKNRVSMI
Assay: Whole-cell patch clamp of Kv3.4 currents in CHO cells transiently transfected with Kv3.4/MiRP2
Format: cell-based
Conditions: peptide 100 nM, acute application; CHO cells transfected with Kv3.4/MiRP2; whole-cell patch clamp
Method: KV3.4 and MiRP2 channel subunits were expressed in Chinese hamster ovary (CHO) cells by transient transfection. CHO cells were grown in 100 mm plastic Petri dishes in Dulbecco's Modified Eagle Medium containing 10% fetal bovine serum (FBS), non-essential amino acids (0.1 mm), penicillin (50 U/ml), and streptomycin (50 μg/ml) in a humidified atmosphere at 37°C with 5% CO2 (Miceli et al., [2015]). KV3.4 and MiRP2 cDNAs were kindly provided by the Professor Goldstein of the Department of Pediatrics and Institute for Molecular Pediatric Sciences, University of Chicago, USA. For electrophysiological experiments, cells were seeded on glass cover-slips (Glaswarenfabrik Karl Hecht KG, Sondheim, Germany) coated with poly-L-lysine (50 μg/mL) and transfected the next day with the appropriate cDNAs using Lipofectamine 2000 according to guidelines for transfection. We performed electrophysiological experiments 48 h after transfection.
Currents from CHO cells were recorded at room temperature 1-2 days after transfection. The extracellular solution contained the following (in mM): 138 NaCl, 5.4 KCl, 2 CaCl2, 1 MgCl2, 10 glucose and 10 HEPES, adjusted pH 7.4 with NaOH. The pipette solution contained (in mM) the following: 140 KCl, 2 MgCl2, 10 EGTA, 10 HEPES, 5 Mg-ATP, adjusted pH 7.4 with KOH (Miceli et al., [2015]). KV3.4 currents were measured by applying voltage steps from −100 mV to +60 mV from a holding potential of −80 mV (Abbott et al., [2001]). Moreover, the total outward K^+ currents were recorded in NGF-differentiated PC-12 cells using the extracellular solution contained the following (in mM): 150 NaCl, 5.4 KCl, 3 CaCl2, 1 MgCl2, 10 HEPES, adjusted pH 7.4 with NaOH. The pipette solution contained the following (in mM): 140 KCl, 2 MgCl2, 10 HEPES, 10 glucose, 10 EGTA, and 1 Mg-ATP adjusted at pH 7.4 with KOH (Diochot et al., [1998]). All experiments were performed in the presence of 50 nM tetrodotoxin (TTX) and 10 μ M nimodipine in the extracellular solution. To discriminate K^+ current components appropriate electrophysiological protocols were used (Pannaccione et al., [2007]). Steady-state activation and inactivation properties were measured by using appropriate protocols (Pannaccione et al., [2005]). Capacitive currents were elicited by 5-mV depolarizing pulses from −80 mV and acquired at a sampling rate of 50 kHz. The capacitance of the membrane was calculated according to the following equation: Cm = τc·Io/ΔEm (1-I∞/Io), where Cm is membrane capacitance, τc is the time constant of the membrane capacitance, Io is the maximum capacitance current value, ΔEm is the amplitude of the voltage step, and I∞ is the amplitude of the steady-state current. K^+ currents were recorded by patch-clamp technique in CHO and NGF-differentiated PC-12 cells using a commercially available amplifier (Axopatch 200B, Molecular Devices) and Digidata 1322A interface (Molecular Devices, USA). The whole-cell configuration of the patch-clamp technique was adopted using glass micropipettes with a resistance of 2.5-5.0 MΩ. Data were acquired and analyzed using the pClamp software (version 9, Molecular Devices).
For the acute treatment, each peptide has been added in the extracellular solution. For each cell, we first recorded K^+ currents as previously described, in the absence of peptides. After that, we switched from the extracellular solution without BDS-I peptides to the extracellular solution containing the BDS-I peptide. In these conditions, we recorded K^+ currents until the steady-state was reached. This protocol has been performed to test the effect on KV3.4 currents of each BDS-I fragment as well as of BDS-I[1-8scr].
To identify the smallest BDS-I amino acid sequence able to block Kv3.4 activity, we evaluated the effect of the newly synthesized BDS-I fragments in CHO cells transiently transfected with Kv3.4/MiRP2, by patch clamp technique in whole cell configuration. […]

Substance | ability to inhibit Kv3.4 currents (in words)
H-NIAAYPH-OH [BDS-I[37-43], C-terminal 7-amino-acid fragment of BDS-I] | did not
H-NAYKWPNI-OH [BDS-I[31-38], overlapping 8-amino-acid fragment of BDS-I] | did not
H-GYGYTSNA-OH [BDS-I[25-32], overlapping 8-amino-acid fragment of BDS-I] | did not
H-GDLWILRG-OH [BDS-I[13-20], overlapping 8-amino-acid fragment of BDS-I] | did not
H-RGTAPGGY-OH [BDS-I[19-26], overlapping 8-amino-acid fragment of BDS-I] | did not
H-SGKPGRGD-OH [BDS-I[7-14], overlapping 8-amino-acid fragment of BDS-I] | did not
